From patent publication US6416965B2, “Screening methods for presqualene disphosphate analogs” (Brigham and Women's Hospital, priority 1997, dated 2002)

Test system: human neutrophils
Assay: FMLP-stimulated 1,4,5-inositol triphosphate (IP3) formation as surrogate for phospholipase C activity
Format: cell-based
Conditions: for inhibition of FMLP-triggered IP3 formation: compound 1 μM, 5 min 37° C., FMLP 100 nM, 10 seconds
Experimental: Neutrophils (10^7/500 μl) were electroporated (1.65 kV/cm, 250 μF, Ω∞, Invitrogen Electroporator VI) at 0° C. in the presence of 10−^9-10−^6 M compound VI, VIII, FDP, FMP, squalene or vehicle (ethanol 0.2%). After electroporation, cells, in cytochrome c (0.7 mg/ml), were exposed (10 minutes, 37° C.) to either cytochalasin b (5 μg/mL) and FMLP (10^−7 M)(a) or PMA ((10^−7 M)(b) and supernatants monitored at […]. Electroporation gave a 49.9% reduction in FMLP-stimulated NADPH oxidase compared to naive cells. Values (FIGS. 4a and 4b) represent the mean±SEM for n≧3, d≧6. For adhesion (FIGS. 4c and 4d), changes in light transmittance were monitored (as in Fiore, S., Nicolaou, K. C., Caulfield, T., Kataoka, H. & Serhan, C. N. Biochem. J. 266, 25-31 (1990), the teachings of which are incorporated herein by reference) after addition of compounds VI, VIII (1.6 μM) or vehicle (0.5 min) and FMLP (0.5-5 μM) (2.5 min). Cell viability remained>99%. Values represent the mean±SEM for n=3, d=9. 1,4,5-inositol-triphosphate levels were determined (Amersham) in fresh PMN (10^7 cells) exposed (5 minutes, 37° C.) to compound VI, compound VIII (1 μM) or vehicle and stimulated with FMLP (10^−7M, 37° C.) (as in FIG. 4e). % Inhibition after 10 second exposure to FMLP is reported as mean±SEM for n=4, d≧8. *p <0.05 in Student's paired t-test compared with control, while “NS” indicates no significant change compared to incubations in the presence of vehicle (ethanol 0.2%) alone. Stereochemistry of PSDP and PSMP (FIG. 4f) were assigned by routine methods (Poulter, C. D. and Rilling, H. C. Acc. Chem. Res. 11, 307-313, (1978), the teachings of which are hereby incorporated by reference).
In addition to PLD, phospholipase C plays a critical role in intracellular signaling via the hydrolysis of inositol lipids to diacyl glyceride (DAG) and inositol trisphosphate (IP3) to effect a cascade of cellular events in response to pro-inflammatory stimuli. DAG activates protein kinases and is converted, in part, to phosphatidic acid by DAG kinase. Therefore, PLC together with DAG kinase provides a second major source of phosphatidic acid in human neutrophils (Agwu, DE, et al., Journal of Clinical Investigation 1991; 88:531). […] To this end, the impact of PSDP on fMLP-stimulated IP3 formation as a surrogate for phospholipase C activity was examined (FIG. 4e).
Amersham's D-myo-inositol 1,4,5-trisphosphate (IP3) [^3H] assay was used for this procedure (Amersham code TRK 1000, including product assay, the contents of which are incorporated herein by reference). The assay is based on procedures developed by Takata S. et al. J. Clin. Invest. 93:499 (1994) and Dillon S. B. et al. J. Biol. Chem. 262:11546 (1987), the contents of which are incorporated herein by reference in their entirety. [drawing 24] […]

CC(C)=CCC/C(C)=C/CC/C(C)=C/C1C(COP(=O)(O)OP(=O)(O)O)C1(C)CC/C=C(\C)CCC=C(C)C (stereo in doubt) [Compound VI, presqualene diphosphate]
inhibition of FMLP-triggered IP3 formation: 56%
inhibition of FMLP-triggered IP3 formation (listed as PSDP): > 50%
inhibition of 1,4,5-inositol-triphosphate formation (nM-μM amounts): inhibited
